These results are taken from patent US8377883B2, “Peptide for anti-angiogenesis and use thereof” (Beijing Institute for Cancer Research, priority 2006, dated 2013).

In test [1] the test system is endothelial cells of mouse aorta. In words: Growth of primary endothelial cells from mouse aorta segments on Matrigel. It is filed as cell-based, Balb/c mice. The settings on record: 10, 25, 100 μg/ml PBS; 48 hours, 72 hours. As for the experimental part:
The Balb/c mice were sacrificed by dislocating the neck and aorta were detached and washed off the blood cells therein with PBS. The cleaned aorta was cut into aorta segments in length of 1 mm, which were planted vertically in 24-well cell culture plate coated with Matrigel gel (BD company); and 10% FCS/RPMI1640 was added, and the plates were placed and cultured in CO2 incubator (37° C., 5% CO2). The vehicle (PBS) and FpAT (10 μg/ml PBS, 25 μg/ml PBS, 100 μg/ml PBS) were added separately, with 3 parallel wells per group, and the cultivation was performed for 48 hours, 72 hours. Then the growth of mouse aorta endothelial cell was observed under microscope.

For test [2], the system named is pig aorta endothelial cells (PAEC). In words: MTT proliferation of pig aorta endothelial cells. Format: cell-based. The settings on record: similar experiment to HUVEC MTT.
In test [3] the test system is human umbilical vein endothelial cells (HUVECs). Kind of test: Three-dimensional tubular structure formation of HUVECs. Format: cell-based. The settings on record: 10, 25, 100 μg/ml PBS; 48, 72, 96 hours. As for the experimental part:
Human umbilical cord samples (obtained from Beijing Obstetrics & Gynecology Hospital) was digested with 0.1% collagenase I (available from GIBCO BRL company), followed by a centrifugation (1000 rpm, 10 minutes) to collect human umbilical vein endothelial cells (HUVECs). After suspended in 20% FCS/RPMI1640, the cells were transferred into plastic bottles for culture in CO2 incubator (37° C., 5% CO2). Twelve hours later, unattached cells were discarded by changing medium, and then the remaining cells were cultured conventionally with the medium changed every 3 days. The cultured HUVECs were digested with 0.04% trypsin-EDTA, and inoculated into 24-well plate at 2×10^4 cells/well; and the vehicle (PBS) and FpAT (10 μg/ml PBS, 25 μg/ml PBS, 100 μg/ml PBS) were added separately, with 3 parallel wells per group.

As to “H2N-Asp-Ser-Gly-Glu-Gly-Asp-Phe-Leu-Ala-Glu-Gly-Gly-Gly-Val-Arg-COOH (H-DSGEGDFLAEGGGVR-OH; listed as Homo sapiens) [FpAT, fibrinopeptide A truncated, carboxyl terminal 15 amino acids of fibrinopeptide A]”, in test [1], the “growth of vascular endothelial cell of mouse aorta” value is given as “can suppress specifically the growth”; the “proliferation, migration and ability to form tubular structure of vascular endothelial cell of mouse aorta” value is “suppress notably”. Further, the “suppression of PAEC proliferation” value in test [2] is recorded as “came to a same conclusion”. Moreover, the “ability to form a three-dimensional and tubular structure of HUVECs” value in test [3] is reported as “can suppress specifically”.
